These are literature values, as cited in PMC7434893 (British Journal of Cancer, 2020).

The data set deals with tankyrase 1/2. As to conditions: relative to E7449; cited from earlier work.
With `C[C@]1(c2nc3c(C(N)=O)cccc3[nH]2)CCCN1` [veliparib], the “IC50 values for tankyrase inhibition, fold higher than E7449” value is 5–20 fold.

As for `NC(=O)c1cccc2cn(-c3ccc([C@@H]4CCCNC4)cc3)nc12` [niraparib], the “IC50 values for tankyrase inhibition, fold higher than E7449” value is on record as 5–20 fold.

With `O=C(c1cc(Cc2n[nH]c(=O)c3ccccc23)ccc1F)N1CCN(C(=O)C2CC2)CC1` [olaparib], the “IC50 values for tankyrase inhibition, fold higher than E7449” value is reported as 5–20 fold.
